Laboratory results taken from patent US11407831B2, “Pharmaceutical composition administered in combination with substituted dihydropyrrolopyrazole compound and immunotherapeutic agent” (UBE INDUSTRIES, LTD., priority 2017, dated 2022).

Legend:
[1] = tested on: Mouse melanoma cells (B16F10); assay: Mouse Melanoma (B16F10) Cell Growth Inhibition Test; type: cell-based; settings: B16-F10, 72 h, 3 days culture, CellTiter-Glo (ATP)
Procedure: Mouse melanoma cells (B16F10) (Cell Resource Center for Biomedical Research, Institute of Development, Aging and Cancer, Tohoku University, Cat. No. TKG0348) were cultured in DMEM medium (REF. 11965-092 manufactured by GIBCO/Thermo Fisher Scientific Inc.) containing 10% FBS (REF. 10082-147 manufactured by GIBCO/Thermo Fisher Scientific Inc.), 1% penicillin/streptomycin/amphotericin B (REF. 15240-096 manufactured by GIBCO/Thermo Fisher Scientific Inc.), and 1 mM sodium pyruvate (REF. 11360-070 manufactured by GIBCO/Thermo Fisher Scientific Inc.) and inoculated at 0.5 to 2.0×10^3 cells/well to a 96-well plate. After overnight culture in a carbon dioxide incubator, culture was further performed for 3 days in a medium containing a solution of a test compound in DMSO (final DMSO concentration: 0.1%), and then, the amount of ATP was measured using CellTiter-Glo (manufactured by Promega Corp.).
The rate of inhibition of cell growth at each concentration was calculated from the test compound concentration and the amount of ATP, and the concentration of the test compound necessary for inhibiting 50% of cell growth (GI50 value) was calculated by using EXSUS (version 8.1.0, manufactured by CAC Croit Corp.).

[2] = tested on: Mouse melanoma cells (B16F10) subcutaneously transplanted; assay: In Vivo Tumor Growth Inhibition Test in Mouse Melanoma Cell (B16F10)-Subcutaneously Transplanted Mouse; design: species or system C57BL/6 mice; settings: day 7
Procedure: Mouse melanoma cells (B16F10) (Cell Resource Center for Biomedical Research, Institute of Development, Aging and Cancer, Tohoku University, Cat. No. TKG0348) were cultured in DMEM medium (REF. 11965-092 manufactured by GIBCO/Thermo Fisher Scientific Inc.) containing 10% FBS (REF. 10082-147 manufactured by GIBCO/Thermo Fisher Scientific Inc.), 1% penicillin/streptomycin/amphotericin B (REF. 15240-096 manufactured by GIBCO/Thermo Fisher Scientific Inc.), and 1 mM sodium pyruvate (REF. 11360-070 manufactured by GIBCO/Thermo Fisher Scientific Inc.) and adjusted to 1.0×10^7 cells/mL with PBS (REF. 10010-031 manufactured by GIBCO/Thermo Fisher Scientific Inc.). The prepared cell suspension was subcutaneously injected at 0.1 mL/mouse to the right abdomens of C57BL/6 mice (female, supplied by Japan SLC, Inc.). After rearing for a certain period, the long diameter (mm) and short diameter (mm) of tumor were measured with electronic calipers (manufactured by Mitsutoyo Corp., Cat. 500-712-10), and the tumor volume was calculated according to the following expression: Tumor volume (mm^3)=(Long diameter)×(Short diameter)×(Short diameter)×0.5
Individuals whose tumor volume was within the range of 50 to 200 mm^3 were selected and grouped such that the tumor volume was almost equivalent, then an anti-PD-1 antibody (manufactured by Bio X Cell) at 250 μg/mouse or Rat IgG2a (manufactured by Bio X Cell) at 250 μg/mouse was intraperitoneally administered, and further a test compound (25 mg/kg or 100 mg/kg) or only a solvent was orally administered to each group. The initial day of the start of administration was defined as day 0, and the anti-PD-1 antibody or Rat IgG2a were intraperitoneally administered on day 0 and day 3, and the test compound or only the solvent was orally administered once a day from day 0 to day 6. On day 7, the long diameter and short diameter of tumor were measured, and the tumor volume was calculated.

[3] = test compound oral (25 mg/kg or 100 mg/kg) once a day day 0 to 6 + Rat IgG2a 250 μg/mouse i.p. day 0 and 3, vs Rat IgG2a + solvent group
[4] = test compound oral (25 mg/kg or 100 mg/kg) once a day day 0 to 6 in combination with anti-PD-1 antibody 250 μg/mouse i.p. day 0 and 3

| SMILES | GI50 [1] [nM] | Rate of inhibition of increase in tumor volume [2, 3] | Rate of inhibition of increase in tumor volume [2, 4] |
| --- | --- | --- | --- |
| CC1(C)c2[nH]nc(NC(=O)C3([Si](C)(C)C)CCC3)c2CN1C(=O)Nc1c(F)ccc2ccoc12 [II-1049, N-(6-Fluorobenzofuran-7-yl)-6,6-dimethyl-3-[1-(trimethylsilyl)cyclobutanecarboxamido]-4,6-dihydropyrrolo[3,4-c]pyrazole-5(1H)-carboxamide] | ≤ 2000 | – | – |
| Cc1ccc(F)cc1NC(=O)N1Cc2c(NC(=O)C3([Si](C)(C)C)CCC3)n[nH]c2C1(C)C [II-361, N-(5-Fluoro-2-methylphenyl)-6,6-dimethyl-3-[1-(trimethylsilyl)cyclobutanecarboxamido]-4,6-dihydropyrrolo[3,4-c]pyrazole-5(1H)-carboxamide] | ≤ 2000 | – | – |
| CC1(C)c2[nH]nc(NC(=O)C3([Si](C)(C)C)CCC3)c2CN1C(=O)Nc1c(F)ccc2cc(Cl)oc12 [II-1063, N-(2-Chloro-6-fluorobenzofuran-7-yl)-6,6-dimethyl-3-[1-(trimethylsilyl)cyclobutanecarboxamido]-4,6-dihydropyrrolo[3,4-c]pyrazole-5(1H)-carboxamide] | ≤ 2000 | D (10% or more and less than 30%) | B (50% or more and less than 70%) |
| Cc1ccc(C)c(NC(=O)N2Cc3c(NC(=O)C4([Si](C)(C)C)CCC4)n[nH]c3C2(C)C)c1 [II-379, N-(2,5-Dimethylphenyl)-6,6-dimethyl-3-[1-(trimethylsilyl)cyclobutanecarboxamido]-4,6-dihydropyrrolo[3,4-c]pyrazole-5(1H)-carboxamide] | ≤ 2000 | B (50% or more and less than 70%) | A (70% or more and less than 90%) |
| Cc1ccc(C)c(NC(=O)N2Cc3c(NC(=O)C4([Si](C)(C)C)CCC4)n[nH]c3C2(C)C)c1F [II-669, N-(2-Fluoro-3,6-dimethylphenyl)-6,6-dimethyl-3-[1-(trimethylsilyl)cyclobutanecarboxamido]-4,6-dihydropyrrolo[3,4-c]pyrazole-5(1H)-carboxamide] | ≤ 2000 | – | – |
| CC1(C)c2[nH]nc(NC(=O)C3([Si](C)(C)C)CCC3)c2CN1C(=O)Nc1c(F)cccc1Cl [II-113, N-(2-Chloro-6-fluorophenyl)-6,6-dimethyl-3-[1-(trimethylsilyl)cyclobutanecarboxamido]-4,6-dihydropyrrolo[3,4-c]pyrazole-5(1H)-carboxamide] | ≤ 2000 | – | – |
| Cc1cccc(Br)c1NC(=O)N1Cc2c(NC(=O)C3([Si](C)(C)C)CCC3)n[nH]c2C1(C)C [II-299, N-(2-Bromo-6-methylphenyl)-6,6-dimethyl-3-[1-(trimethylsilyl)cyclobutanecarboxamido]-4,6-dihydropyrrolo[3,4-c]pyrazole-5(1H)-carboxamide] | ≤ 2000 | – | – |
| Cc1ccccc1NC(=O)N1Cc2c(NC(=O)C3([Si](C)(C)C)CCC3)n[nH]c2C1(C)C [II-21, 6,6-Dimethyl-N-(o-tolyl)-3-[1-(trimethylsilyl)cyclobutanecarboxamido]-4,6-dihydropyrrolo[3,4-c]pyrazole-5(1H)-carboxamide] | ≤ 2000 | – | – |
| Cc1cccc(Cl)c1NC(=O)N1Cc2c(NC(=O)C3([Si](C)(C)C)CCC3)n[nH]c2C1(C)C [II-215, N-(2-Chloro-6-methylphenyl)-6,6-dimethyl-3-[1-(trimethylsilyl)cyclobutanecarboxamido]-4,6-dihydropyrrolo[3,4-c]pyrazole-5(1H)-carboxamide] | ≤ 2000 | B (50% or more and less than 70%) | A (70% or more and less than 90%) |
| Cc1cc2ccc(F)c(NC(=O)N3Cc4c(NC(=O)C5([Si](C)(C)C)CCC5)n[nH]c4C3(C)C)c2o1 [II-1059, N-(6-Fluoro-2-methylbenzofuran-7-yl)-6,6-dimethyl-3-[1-(trimethylsilyl)cyclobutanecarboxamido]-4,6-dihydropyrrolo[3,4-c]pyrazole-5(1H)-carboxamide] | ≤ 2000 | – | – |
